The conditions of series [1]: Figure 1 summary data; cited from earlier work.
For series [2] the following is noted: Figure 1 summary data; cited from earlier work. This is another data set of the same source.
The nature of series [3]: Pharmacokinetics in rats. The series is classed as in vivo. As to conditions: rat, hydrochloride salt.

One may read the Vd as the apparent volume that relates the amount in the body to the concentration in plasma or blood.

Like-named read-outs stand apart in the source and are kept apart here.

On to `CC(C)CCNc1ccc(-c2cnc3ccc(NC4CCN(C)CC4)nn23)cn1` [Compound 1], for which the “HLM % rem at 40 min” value in series [1] is 85%. In addition, in series [2], the “MLM % rem at 30 min” value is given as 63%.

In the case of `CN1CCC(Nc2ccc3ncc(-c4ccc(Nc5ncccc5F)cc4)n3n2)CC1` [Compound 35, 3-{4-[(3-Fluoropyridin-2-yl)amino]phenyl}-N-(1-methylpiperidin-4-yl)imidazo[1,2-b]pyridazin-6-amine], the Vd in series [3] (in vivo, iv 4.5 mg/kg) is 8 L/kg. Further, the half-life in series [3] (in vivo, iv 4.5 mg/kg, read-out: iv t1/2 (converted)) was 4 h. The clearance in series [3] (plasma, iv 4.5 mg/kg, read-out: plasma Cl) was 28 mL/min/kg; in series [3] (whole blood, iv 4.5 mg/kg, read-out: blood Cl), 14 mL/min/kg. For the same compound, the “oral BA” value in series [3] (po 21 mg/kg, iv […]) was 70%.

The values above are taken from PMC4024065, “Optimization of an Imidazopyridazine Series of Inhibitors of Plasmodium falciparum Calcium-Dependent Protein Kinase 1 (PfCDPK1)” (Journal of Medicinal Chemistry, 2014).
